Source: patent US12275684B2, “Methods for making and using endoxifen” (Atossa Therapeutics, Inc., priority 2017, dated 2025)
Read-outs that look alike come from different tables or passages of the source.

Experiment: Placebo controlled, dose escalation pharmacokinetic study of oral (Z)-Endoxifen capsules (serum endoxifen; incl. accumulation ratios and dose linearity)
Assay type: in vivo, human
Conditions: for AUC(0-t) / Cmax / Tmax / half-life / AUC(0-inf) / AUC / Vd/F: female, human, serum, po; for AUC(0-inf): read-out: AUC0-inf; for AUC: read-out: AUC to last time point; for Vd/F: read-out: volume of distribution (Vd/F); for time to attain steady state: once daily oral dosing
Source text: An objective of the study was to assess the safety and tolerability of oral (Z)-Endoxifen when administered […] orally as a capsule to healthy female volunteers. A secondary objective was to assess the pharmacokinetics of multiple doses of oral (Z)-Endoxifen in the subjects.
Generally, healthy female volunteers aged ≥18 years and ≤65 years were enrolled. 24 participants were enrolled in 3 cohorts and will be administered study drug orally. Three dose levels of orally administered (Z)-Endoxifen were investigated in 3 cohorts. In each cohort participants were randomized to receive an oral (Z)-Endoxifen or placebo in a blinded fashion. Enteric-resistant capsules used in the study were designed as delayed release capsules to resist rupture for at least 30 minutes, but typically, for about 2 hours, under gastric conditions and then open fully in intestinal fluid (DRCaps; Capsugel, a Lonza Company, USA). Enteric-resistant (Swedish Orange size Zero (0); Capsugel, USA) DRCaps capsules manually filled with 1, 2 or 4 mg of (Z)-endoxifen neat in compliance with GMP requirements were used. Placebo capsules contained microcrystalline cellulose an inert common capsule and tablet excipient.
Each cohort enrolled 8 participants, with 6 participants receiving (Z)-Endoxifen 1 mg capsules orally at 1 mg (Cohort 1), 2 mg (Cohort 2) or 4 mg (Cohort 3) doses and 2 participants receiving matching placebo capsules. In Cohort 1 (Dose Level=1 mg) two participants (sentinels) were dosed 24 hours prior to the remaining participants. One sentinel was dosed with (Z)-Endoxifen and the other with placebo. The remaining six participants in Cohort 1 were dosed as no safety concerns were identified in the sentinel participants. The non-sentinel participants in Cohort 1 were admitted to the clinical research facility at least one day later than the sentinels. There were no sentinels in Cohorts 2 and 3.
Participant engagement in this study was for a period of 56 days. These included a 28 day screening period, and a 7 day post treatment period for Pharmacokinetic (PK) sampling. There were two confinement periods, one at the beginning and one at the end of the dosing periods. Participants were confined to the clinical facility on Days-1 through to Day 2 and Days 21 and 22. If participants were to experience any clinically significant adverse events during the study, they would have been required to remain in the clinical facility for further observation at the discretion of the Principal Investigator (PI).
Healthy female volunteers were screened within 28 days prior to commencement of dosing. Participants were admitted to the clinical facility on Day-1 for up to 3 days. The first dose of (Z)-Endoxifen or placebo capsules was administered on Day 1. Following completion of all safety assessments and sampling for PK analyses, participants were discharged from the clinical facility on Day 2. The first dose on Day 1 was followed by a 6-day treatment free period (Days 2-7). Each participant returned to the clinical facility for PK blood draws and safety assessments during the treatment free period on study Days 4 and 6. On Day 8 participants commenced daily administration of (Z)-Endoxifen capsules or placebo capsules for 14 consecutive days (Days 8-21). Participants were supplied with study drug capsules and asked to self administer daily. Participants visited the clinical facility on Days 11, 14 and 17, prior to dose administration, for PK blood draws and safety assessments. On the morning of Day 21 each participant returned to the clinical facility prior to dose administration and were confined to the facility until Day 22 to allow for the collection of PK blood draws and safety assessments. The Day 21 dose was the last administration of study drug. Participants were discharged from the clinical facility on Day 22 and returned for PK blood draws and safety assessments on study Days 24, 26, and 28. […]

[1] = 4 mg, Day 1, dose 4 mg oral, GeoMean, N 6
[2] = 4 mg, Day 1, dose 4 mg oral, Mean, N 6
[3] = 4 mg, Day 1, dose 4 mg oral, Median, N 6

Q: Which AUC(0-t) (2 mg/day, Day 21, 2 mg/day oral (n = 6), read-out: AUC24 hr, Arithmetic Mean) does the source give for CC/C(=C(\c1ccc(O)cc1)c1ccc(OCCNC)cc1)c1ccccc1 [(Z)-Endoxifen, (Z)-4-(1-(4-(2-(methylamino)ethoxy)phenyl)-2-phenylbut-1-enyl) phenol] here?
A: The AUC(0-t) was 911 ng·h/mL.

Q: And the Cmax (2 mg/day, Day 21, 2 mg/day oral (n = 6), read-out: Cmax, Arithmetic Mean)?
A: Its Cmax is 50 ng/mL.

Q: And the Tmax (2 mg/day, Day 21, 2 mg/day oral (n = 6), read-out: Median Tmax)?
A: Its Tmax is 4 h.

Q: What about the Tmax (2 mg/day, Day 21, 2 mg/day oral (n = 6), read-out: Tmax (Range)) of the same molecule?
A: Its Tmax is 2 to 6.05 h.

Q: What about the half-life (2 mg/day, Day 21, 2 mg/day oral (n = 6), read-out: t1/2, Arithmetic Mean (converted)) of the same molecule?
A: Its half-life is 43.4 h.

Q: And the AUC(0-inf) [1]?
A: The AUC(0-inf) was 1700 ng·h/mL.

Q: And the AUC(0-t) (4 mg, Day 1, dose 4 mg oral, GeoMean, N 6, read-out: AUC24hr)?
A: Its AUC(0-t) is 521 ng·h/mL.

Q: What about the AUC [1] of the same molecule?
A: The AUC was 1420 ng·h/mL.

Q: And the Cmax (4 mg, Day 1, dose 4 mg oral, GeoMean, N 6, read-out: Cmax)?
A: The Cmax was 29.1 ng/mL.

Q: What about the Tmax (4 mg, Day 1, dose 4 mg oral, GeoMean, N 6, read-out: Tmax) of the same molecule?
A: The Tmax was 5.15 h.

Q: And the half-life (4 mg, Day 1, dose 4 mg oral, GeoMean, N 6, read-out: apparent terminal half life (t½) (converted))?
A: Its half-life is 40.7 h.

Q: What about the Vd/F [1] of the same molecule?
A: The Vd/F was 138 L.

Q: And the AUC(0-inf) [2]?
A: Its AUC(0-inf) is 2020 ng·h/mL.

Q: And the AUC(0-t) (4 mg, Day 1, dose 4 mg oral, Mean, N 6, read-out: AUC24hr)?
A: The AUC(0-t) was 587 ng·h/mL.

Q: What about the AUC [2] of the same molecule?
A: Its AUC is 1650 ng·h/mL.

Q: And the Cmax (4 mg, Day 1, dose 4 mg oral, Mean, N 6, read-out: Cmax)?
A: Its Cmax is 32.5 ng/mL.

Q: What about the Tmax (4 mg, Day 1, dose 4 mg oral, Mean, N 6, read-out: Tmax) of the same molecule?
A: Its Tmax is 5.56 h.

Q: What about the half-life (4 mg, Day 1, dose 4 mg oral, Mean, N 6, read-out: apparent terminal half life (t½) (converted)) of the same molecule?
A: Its half-life is 41.6 h.

Q: What about the Vd/F [2] of the same molecule?
A: Its Vd/F is 154 L.

Q: What about the AUC(0-inf) [3] of the same molecule?
A: Its AUC(0-inf) is 1760 ng·h/mL.

Q: And the AUC(0-t) (4 mg, Day 1, dose 4 mg oral, Median, N 6, read-out: AUC24hr)?
A: Its AUC(0-t) is 539 ng·h/mL.

Q: What about the AUC [3] of the same molecule?
A: Its AUC is 1420 ng·h/mL.

Q: And the Cmax (4 mg, Day 1, dose 4 mg oral, Median, N 6, read-out: Cmax)?
A: The Cmax was 29.5 ng/mL.

Q: What about the Tmax (4 mg, Day 1, dose 4 mg oral, Median, N 6, read-out: Tmax) of the same molecule?
A: Its Tmax is 5.08 h.

Q: And the half-life (4 mg, Day 1, dose 4 mg oral, Median, N 6, read-out: apparent terminal half life (t½) (converted))?
A: The half-life was 39.9 h.

Q: And the Vd/F [3]?
A: The Vd/F was 131 L.

Q: And the AUC(0-t) (4 mg, Day 21, dose 4 mg oral once daily, GeoMean, N 6, read-out: AUC24hr)?
A: Its AUC(0-t) is 1740 ng·h/mL.

Q: And the Cmax (4 mg, Day 21, dose 4 mg oral once daily, GeoMean, N 6, read-out: Cmax)?
A: The Cmax was 100 ng/mL.

Q: And the Tmax (4 mg, Day 21, dose 4 mg oral once daily, GeoMean, N 6, read-out: Tmax)?
A: The Tmax was 4.75 h.

Q: What about the half-life (4 mg, Day 21, dose 4 mg oral once daily, GeoMean, N 6, read-out: apparent terminal half life (t½) (converted)) of the same molecule?
A: Its half-life is 44.6 h.

Q: What about the Vd/F (4 mg, Day 21, dose 4 mg oral once daily, GeoMean, N 6) of the same molecule?
A: Its Vd/F is 148 L.

Q: And the AUC(0-t) (4 mg, Day 21, dose 4 mg oral once daily, Mean, N 6, read-out: AUC24hr)?
A: Its AUC(0-t) is 2040 ng·h/mL.

Q: And the Cmax (4 mg, Day 21, dose 4 mg oral once daily, Mean, N 6, read-out: Cmax)?
A: Its Cmax is 115 ng/mL.

Q: And the Tmax (4 mg, Day 21, dose 4 mg oral once daily, Mean, N 6, read-out: Tmax)?
A: The Tmax was 5.33 h.

Q: What about the half-life (4 mg, Day 21, dose 4 mg oral once daily, Mean, N 6, read-out: apparent terminal half life (t½) (converted)) of the same molecule?
A: Its half-life is 45.1 h.

Q: What about the Vd/F (4 mg, Day 21, dose 4 mg oral once daily, Mean, N 6) of the same molecule?
A: The Vd/F was 189 L.

Q: And the AUC(0-t) (4 mg, Day 21, dose 4 mg oral once daily, Median, N 6, read-out: AUC24hr)?
A: The AUC(0-t) was 2470 ng·h/mL.

Q: What about the Cmax (4 mg, Day 21, dose 4 mg oral once daily, Median, N 6, read-out: Cmax) of the same molecule?
A: Its Cmax is 131 ng/mL.

Q: And the Tmax (4 mg, Day 21, dose 4 mg oral once daily, Median, N 6, read-out: Tmax)?
A: Its Tmax is 5 h.

Q: And the half-life (4 mg, Day 21, dose 4 mg oral once daily, Median, N 6, read-out: apparent terminal half life (t½) (converted))?
A: The half-life was 45.3 h.

Q: And the Vd/F (4 mg, Day 21, dose 4 mg oral once daily, Median, N 6)?
A: Its Vd/F is 106 L.

Q: What about the AUC(0-t) (4 mg/day, Day 1, 4 mg/day oral (n = 6), read-out: AUC24 hr, Arithmetic Mean) of the same molecule?
A: Its AUC(0-t) is 587 ng·h/mL.

Q: What about the Cmax (4 mg/day, Day 1, 4 mg/day oral (n = 6), read-out: Cmax, Arithmetic Mean) of the same molecule?
A: The Cmax was 32.5 ng/mL.

Q: What about the Tmax (4 mg/day, Day 1, 4 mg/day oral (n = 6), read-out: Median Tmax) of the same molecule?
A: The Tmax was 5.08 h.

Q: And the Tmax (4 mg/day, Day 1, 4 mg/day oral (n = 6), read-out: Tmax (Range))?
A: The Tmax was 3 to 6 h.

Q: What about the half-life (4 mg/day, Day 1, 4 mg/day oral (n = 6), read-out: t1/2, Arithmetic Mean (converted)) of the same molecule?
A: The half-life was 41.6 h.

Q: And the AUC(0-t) (4 mg/day, Day 21, 4 mg/day oral (n = 6), read-out: AUC24 hr, Arithmetic Mean)?
A: Its AUC(0-t) is 2040 ng·h/mL.

Q: What about the Cmax (4 mg/day, Day 21, 4 mg/day oral (n = 6), read-out: Cmax, Arithmetic Mean) of the same molecule?
A: Its Cmax is 115 ng/mL.

Q: What about the Tmax (4 mg/day, Day 21, 4 mg/day oral (n = 6), read-out: Median Tmax) of the same molecule?
A: Its Tmax is 5 h.

Q: What about the Tmax (4 mg/day, Day 21, 4 mg/day oral (n = 6), read-out: Tmax (Range)) of the same molecule?
A: The Tmax was 2 to 10 h.

Q: What about the half-life (4 mg/day, Day 21, 4 mg/day oral (n = 6), read-out: t1/2, Arithmetic Mean (converted)) of the same molecule?
A: The half-life was 45.1 h.

Q: What about the “time to attain steady state” value of the same molecule?
A: Its value is no more than 7 days.

Q: And the “time to attain steady state” value (listed as (Z)-endoxifen)?
A: The value was “approximately 7 days”.
